What was measured:
DsaD/E complex [1] = assay: Preparative-scale Cα/Cβ-deuteration with DsaD and DsaE clarified lysates in D2O; assay type: biochemical, Streptomyces scopuliridis
Procedure: FIG. 5. ^1H NMR analysis of site-selective deuteration of L-Leu. Reaction conditions: 20 mM L-Leu 2.5% v/v DsaD clarified lysate, 2.5% v/v DsaE clarified lysate (when needed), 50 mM sodium phosphate (pD 8.4), 0.1 mM PLP, D2O (99.9% D).
FIG. 8. Preparative-scale and site-selective deuteration of amino acids. Conditions: 10-20 mM amino acid, 2.5% v/v DsaD clarified lysate, 2.5% v/v DsaE clarified lysate, 50 mM sodium phosphate (pD 8.4), 0.1 mM PLP, D2O (99.9%).
(§1) General procedure for milligram-scale biocatalytic deuteration: A 4-dram scintillation vial was charged with amino acid (10-20 mM final concentration), Na3PO4 buffer pD 8.4 (50 mM final concentration), PLP (100 μM final concentration), DsaD clarified cell lysate (2.5% v/v), DsaE clarified cell lysate (if applicable) (2.5% v/v), and D2O (or dH2O) to the appropriate final volume. The reaction vessel was placed in an incubator at 37° C. for 16 h. Reaction progress was monitored by UPLC-MS. After reaction completion, the reaction mixture was quenched with an equivalent volume of acetone and centrifuged (4,000 rpm, 10 min) to remove denatured protein. Supernatant was transferred to a clean beaker, the decanted supernatant was concentrated to remove acetone by rotary evaporation and loaded onto a preparative reverse-phase C18 column pre-equilibrated with water. Purification was performed via gradient elution on an Isolera One Flash Purification system (Biotage). Fractions bearing product (confirmed by UPLC-MS sampling of fraction tubes) were pooled and dried by rotary evaporation. The product was then resuspended in a minimal quantity of water, transferred to a pre-weighed 20 mL vial, frozen, and lyophilized.

DsaD/E system = assay: Two-step Cα/Cβ deuteration then Cα deuterium washout with DsaD in H2O; assay type: biochemical, Streptomyces scopuliridis; details: after Cα washout with DsaD in water
Procedure: as §1
An initial reaction was performed with DsaD and DsaE to produce Cα,Cβ-deuterated L-Leu-2,3,3-d3 (25). Following reaction quenching with acetone, centrifugation to remove protein products, and removal of acetone and D2O via rotary evaporation, the dry crude product mixture was subjected to standard reaction conditions with DsaD in water. This reaction led to washout of the Cα deuterium, providing exclusively Cβ-deuterated L-Leu-3,3-d2 (44) with high levels of deuterium incorporation at Cβ (FIG. 5, 86% D incorporation and 98% ee). The site of H/D exchange in these reactions is dictated by the presence or absence of DsaE from the reaction conditions, enabling control of amino acid deuteration patterns.
We performed Cα/Cβ deuteration on a panel of amino acids, quenched the reactions and resubjected the crude product to Cα deuterium washout with DsaD in H2O. […]

DsaD/E complex [2] = assay: Analytical-scale Cα/Cβ H/D exchange with purified DsaD and DsaE; assay type: biochemical, Streptomyces scopuliridis; details: 10 mM substrate, 5 μM DsaD, 50 μM DsaE (10:1), 37° C., 8 h
Procedure: FIGS. 3A-3C. Optimization of H/D exchange reactions and evaluation of the substrate scope. FIG. 3A. Optimization of Cβ-deuteration by increasing equivalents of partner protein DsaE. FIG. 3B. Evaluation of substrate scope of dual-protein-catalyzed Cα/Cβ deuteration under optimized conditions. FIG. 3C. UV-visible spectroscopy used to evaluate non-native substrate binding to DsaD. Reaction conditions: 10 mM amino acid substrate, 50 μM DsaE, 5 μM DsaD (10:1), 50 mM sodium phosphate (pD 8.4), 0.1 mM PLP, D2O, 37° C., 8 h. Reactions performed in duplicate, and percentage isotope incorporation is reported as the average of the replicates.
General procedure analytical scale deuteration reactions: α/β deuteration reactions were performed as follows. A 1 mL Eppendorf tube was charged with amino acid (10-20 mM final concentration), Na3PO4 buffer pD 8.4 (50 mM final concentration), PLP (100 μM final concentration), purified enzymes or appropriate lysate and D2O and to the appropriate final volume (typically 50 μL). Reactions were carried out at 37° C. for 8 h and quenched by the addition of 3 volumes of acetonitrile. Precipitated biomolecules were pelleted by centrifugation (16,000×g, 10 min) and samples were processed as described below.
(§2) Marfey's derivatization of analytical scale reactions: Derivatization of the resulting analytical scale product mixture (to increase overall signal and enable reverse phase chromatographic analysis) was achieved by treatment with Marfey's reagent^2 (1-fluoro-2-4-dinitrophenyl-5-L-alanine amide, L-FDAA) using the following protocol. 25 μL of quenched reaction mix (final amine concentration, 1.6 mM) was added to an Eppendorf tube with 50 μL of 15 mM NaHCO3 (final concentration, 5 mM) and 75 μL of 5 mM L-FDAA (final concentration, 2.5 mM). Derivatization reactions were carried out for 10-12 h before quenching with 150 μL of 60 mM HCl dissolved in acetonitrile. Final reaction analysis was carried out by UPLC-DAD-MS and quantitation as described below.
(§3) Quantitation of deuteration in analytical scale reactions: Deuteration reactions were analyzed by UPLC-DAD-MS with single ion recording (SIR) channels set to record a spectrum with the appropriate isotopic mass in positive mode. The area under the curve of recorded SIR peaks was obtained and normalized to account for natural isotopic abundance distributions (e.g. ^13C, ^15N, ^2H, ^34S, etc). Percent deuterium incorporation was calculated by the formula below. These measurements were carried out in an iterative fashion to measure Cα deuteration and Cβ deuteration.

DsaD = DsaD (Streptomyces scopuliridis, UniProt A0A0D5CCB2); assay: UV-vis spectroscopy of amino acid binding to DsaD; details: 20 μM DsaD, pH 8.0, 25° C.
Procedure: UV-Vis Spectroscopy: Data were collected between 600 and 300 nm on a UV-2600 Shimadzu spectrophotometer (Shimadzu, Kyoto, Japan) with a semi-micro quartz cuvette (Starna Cells, Atascadero, California, USA) at 25° C. DsaD stock solutions were diluted to 20 μM in 50 mM sodium phosphate pH 8.0. For observation of substrate binding, amino acids were added at concentrations ranging from 2.5-10 mM. Spectra from 600-300 nm were collected after a 2-minute incubation period. Amino acid stocks were prepared as 100 mM stocks in deionized water.

[3] = substrate: CC[C@H](C)[C@H](N)C(=O)O; assay: Steady-state kinetic analysis of H/D exchange of L-Ile by DsaD with partner protein DsaE; assay type: biochemical, Streptomyces scopuliridis; details: pH 8.4
Procedure: (§4) FIGS. 2A-2E. Steady-state kinetic analysis of H/D exchange by the Ile epimerization system. FIG. 2A. Steady-state kinetic analysis describing Cβ-deuteration^a of L-Ile under varied equivalents of partner enzyme DsaE. FIG. 2B. Steady-state kinetic analysis of Cβ-deuteration rates^a at a constant 1 mM L-Ile, measured against increasing equivalents of DsaE. FIG. 2C. Steady-state kinetic analysis of Cα-deuteration^a of L-Ile in the presence and absence of partner protein DsaE. FIG. 2D. Proposed mechanism of selective deuterium incorporation at Cα and Cβ catalyzed by dual protein catalysis. FIG. 2E. UV-visible spectrum of DsaD in the absence and presence of L-Ile.^a Measurement of initial rates was performed in duplicate at 24° C. Conditions: 0.1-10 mM L-Ile, 3 μM DsaD, 50 mM sodium phosphate (pD 8.4), and 0.1 mM PLP in D2O (99.9%). Proteins were exchanged into a 50 mM sodium phosphate-D2O (pD 8.4) solution prior to reaction initiation to minimize proton contamination (<1% H2O). Following quench with MeCN, crude reaction products were subjected to functionalization with Marfey's reagent (L-FDAA) to enable analysis by reverse-phase chromatography and quantification of isotope incorporation by mass spectrometry.
as §2
as §3, with “These measurements were carried out in an iterative fashion to measure Cα deuteration and Cβ deuteration.” left out
Kinetic analysis of biocatalytic L-Ile deuteration: Initial rates of α- or β-deuteration were obtained by means of end-point assay using the quantitation protocol for analytical scale reactions as described above. […] Michaelis constants (KM) for α- and β-deuteration of L-Ile were determined using the concentration range of 0.1-10 mM L-Ile using 3 μM DsaD. […]

DsaD/DsaE complex = DsaD/DsaE complex (Streptomyces scopuliridis, UniProt A0A0D5CCB2); assay: as above; assay type: biochemical
Sequence of DsaD/DsaE complex (A0A0D5CBB6 entry or part of it, one chain of several): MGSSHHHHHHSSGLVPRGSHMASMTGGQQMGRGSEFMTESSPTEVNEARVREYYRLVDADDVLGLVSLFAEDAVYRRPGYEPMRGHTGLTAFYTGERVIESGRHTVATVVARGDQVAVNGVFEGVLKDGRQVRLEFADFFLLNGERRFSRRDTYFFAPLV
Procedure: as §4, §2, §3
Kinetic analysis of biocatalytic L-Ile deuteration: Initial rates of α- or β-deuteration were obtained by means of end-point assay using the quantitation protocol for analytical scale reactions as described above. All reagents were prepared in D2O (99.9% D) and protein stocks were dialyzed (3 exchanges over 3 h at 4° C.) into 50 mM sodium phosphate buffer dissolved in D2O (pD 8.4) using a slide-a-lyzer device with a 3,000 Da cutoff. Reactions were performed at 25° C. in 1 mL Eppendorf tubes. Michaelis constants (KM) for α- and β-deuteration of L-Ile were determined using the concentration range of 0.1-10 mM L-Ile using 3 μM DsaD. Partner protein (DsaE) concentrations were consistent within each experiment and separate experiments were performed using varied equivalents of partner protein (0-50 equiv). Initial velocities were measures in duplicate or triplicate for at least 6 different substrate concentrations for each set of conditions tested. Measurements of the impact of partner protein (DsaE) concentration on the initial rate of β-deuteration were carried out using 1 mM L-Ile, 3 μM DsaD and varying DsaE concentrations between 3 μM-600 μM (1-200 equiv). Under the minimal proton contamination conditions of this assay (99.9% D2O), Cα and Cβ deuteration are assumed to have occurred without back transfer to proton. The data were fit using the Michaelis-Menten equation implemented in Prism.

[4] = DsaD and DsaE clarified lysates, D2O, 5% 1H-water
[5] = lower substrate loading (10 mM)

[2H]C([2H])(C(C)C)[C@]([2H])(N)C(=O)O [L-Leu-2,3,3-d3]
deuterium incorporation at Cα (DsaD/E complex [1]; [4]): 95% | deuterium incorporation at Cβ (DsaD/E complex [1]; [4]): 86%

[2H]C([2H])(C(C)C)[C@H](N)C(=O)O [L-Leu-3,3-d2]
D incorporation at Cβ (DsaD/E system): 86%

[2H]C([2H])(c1ccccc1)[C@]([2H])(N)C(=O)O [L-Phe-2,3,3-d3]
deuterium incorporation at Cα (DsaD/E complex [1]; [5]): 95% | deuterium incorporation at Cβ (DsaD/E complex [1]; [5]): 85%

CSCC[C@H](N)C(=O)O [Met, methionine]
D-incorporation at Cα (DsaD/E complex [2]): high levels of exchange | D-incorporation at Cβ (DsaD/E complex [2]): moderate levels of D-incorporation

CSC[C@H](N)C(=O)O [S-Me-Cys, S-methylcysteine]
D-incorporation at Cα (DsaD/E complex [2]): high levels of exchange | D-incorporation at Cβ (DsaD/E complex [2]): moderate levels of D-incorporation

N[C@@H](CO)C(=O)O [Ser]
Cα and Cβ D-incorporation (DsaD/E complex [2]): did not undergo any deuteration

C[C@@H](O)[C@H](N)C(=O)O [Thr, threonine]
Cα and Cβ D-incorporation (DsaD/E complex [2]): did not undergo any deuteration | substrate binding to DsaD by UV-vis (DsaD): no binding was observed

N[C@@H](Cc1c[nH]c2ccccc12)C(=O)O [Trp, tryptophan]
D-incorporation at Cα (DsaD/E complex [2]): underwent Cα-deuteration | D-incorporation at Cβ (DsaD/E complex [2]): no Cβ-deuteration

CO[C@H](C)[C@H](N)C(=O)O [compound 30, L-(OMe)-Thr]
D-incorporation at Cα (DsaD/E complex [2]): high levels of deuteration | D-incorporation at Cβ (DsaD/E complex [2]): moderate deuterium incorporation and scrambling of configuration | substrate binding to DsaD by UV-vis (DsaD): enables productive binding

COc1ccc(C[C@H](N)C(=O)O)cc1 [compound 34, (OMe)-L-Tyr]
D-incorporation at Cα (DsaD/E complex [2]): 99% | D-incorporation at Cβ (DsaD/E complex [2]): 74%

CC(C)CCN [isopentylamine]
Cα and Cβ D-incorporation (DsaD/E complex [2]): Neither of these substrates underwent deuteration

CC[C@H](C)[C@H](N)C(=O)OC [methyl ester of Ile]
Cα and Cβ D-incorporation (DsaD/E complex [2]): Neither of these substrates underwent deuteration

B1: DsaD/DsaE complex (Streptomyces scopuliridis) (protein)
chain: MGSSHHHHHHSSGLVPRGSHMASMTGGQQMGRGSEFMHIVTTPVARPLTAQERTERCAAPAFGTAFTEHMVSARWNPEQGWHDAELVPYGPLLLDPATVGLHYGQVVFEGLKAFRSHTGEVAVFRPDAHAERMRASARRLMMPEPPEELFLAAVDALVAQDQEWIPDDPGMSLYLRPILFASERTLALRPAREYRFLLVAFITEGYFGPAQRPVRVWVTDEYSRAAAGGTGAAKCAGNYAGSLLAQEEAQRKGCDQVVWLDPVERNWVEEMGGMNLFFVYEAGGSARLVTPPLTGSLLPGVTRDALLRLAPTLGVPVSEAPLSLEQWRADCASGAITEVFACGTAARISPVNEVSTKDGSWTIGAGAPAEGGVAAGEVTGRLSAALFGIQRGELPDSHSWMRPVSPARQSAIT
Km ([3]; other: 5 equiv. of DsaE (5:1 DsaE:DsaD)): 200 ± 10 µM | Km ([3]; other: 50 equiv. of DsaE (50:1 DsaE:DsaD)): 300 ± 90 µM | Km ([3]; other: one equivalent of DsaE, 3 μM DsaD): 2400 ± 680 µM | Km ([3]; other: with DsaE bound): 120 ± 20 µM

B2: DsaE: small partner protein of aminotransferase DsaD, SEQ ID NO: 3, Streptomyces scopuliridis (protein, listed as Streptomyces scopuliridis)
chain: MTESSPTEVNEARVREYYRLVDADDVLGLVSLFAEDAVYRRPGYEPMRGHTGLTAFYTGERVIESGRHTVATVVARGDQVAVNGVFEGVLKDGRQVRLEFADFFLLNGERRFSRRDTYFFAPLV
modifications: DsaE
Km (DsaD/DsaE complex; 1 mM L-Ile, 3 μM DsaD, initial rate of Cβ-deuteration vs DsaE, read-out: KM for the formation of the active DsaD/DsaE complex): 40 ± 5 µM | DsaE concentration at plateau of Cβ-deuteration rate (DsaD/DsaE complex; 1 mM L-Ile, 3 μM DsaD, 100:1 ratio): around 0.3 mM | KM for association of DsaD and DsaE (DsaD/DsaE complex; as restated in conclusions): 40 µM

— patent US12662688B2, “Site-selective deuteration of amino acids through dual protein catalysis” (Wisconsin Alumni Research Foundation, priority 2022, dated 2026)
